We go through one molecule from patent US20240398737A1, “FUNCTIONALIZED LONG-CHAIN HYDROCARBON MONO- AND DI-CARBOXYLIC ACIDS AND DERIVATIVES THEREOF, AND THEIR USE FOR THE PREVENTION OR TREATMENT OF DISEASE” (Espervita Therapeutics, Inc., priority 2021, published 2024).

Experiment [1] has as its system bone marrow derived macrophages (BMDMs). The experiment is described as follows: LPS-induced Il-6 and Il-1b mRNA in BMDMs (RT-qPCR). It counts as cell-based, mouse. Particulars: LPS 10 ng/mL + Compound I-1 50 μM, 4 hours. As for the experimental part:
(§1) Example 10: Treatment of bone marrow derived macrophages Mϕ (BMDMs) with Compound I-1 suppresses lipopolysaccharide (LPS)-induced glycolysis and inflammation. Macrophage were isolated as follows: femurs and tibia were collected from mice, cleaned of any soft tissues and the ends were cut off from each bone. The tibia and femur were then transferred into 1.5 mL Eppendorf tubes and the marrow was extracted via centrifugation (1900 g×5 min), resuspended in DMEM and strained through a 40 μm strainer into a 50 ml falcon tube. The strainer was rinsed with an additional 40 mL of DMEM, the cell suspension was transferred to a T175 flask, an additional 60 mL of DMEM was added and the cells were cultured at 37° C. for 4 hours. Differentiation was initiated by adding 20 mL of L929 fibroblast conditioned media and 12 mL was plated on 100 mm dishes. The cells were then left for 7 days to differentiate into macrophages. […] Changes in gene expression were calculated using 2-delta cT method. Macrophage glycolytic rates were assessed using a Seahorse Bioanalyzer (XFe96, Agilent Scientific Instruments). […] The following day cells were serum-starved for 2 hours then treated with LPS (100 ng/mL) and Compound I-1 (50 μM) and glycolytic rate was analyzed (Agilent Seahorse XFp Cell Energy Phenotype Test Kit, Cat #103275-100).
On the technique in general: Quantitative PCR measures a nucleic acid by following its amplification.

Another experiment has as its target Human ACC1 (Homo sapiens (Human), UniProt Q13085). The experiment is described as follows: ACC1 enzymatic assay (ADP-Glo). The settings on record: recombinant human ACC1 5 nM; 10 concentrations from 300 μM; Runs 1-3. The arrangement: key to Compound IC50 (M) ACC1: *: No detectable inhibition or compound activity. It counts as biochemical. As for the experimental part:
Human ACC1 (Cat #50202 Lot #120830) and ACC2 (Cat #50201 Lot #160217) were obtained from BPS Biosciences, San Diego, CA 92121. Human ACC1 had C-terminal flag and His-tags with a MW of 270 KDa after purification from Baculovirus infected Sf9 cell expression system and came as a solution in 50 mM Tris-HCl, pH 8.0, 500 mM NaCl, 10% glycerol, 1 mM DTT, 100 μg/ml FLAG peptide with 70% purity. The stock concentration was 0.25 mg/ml corresponding to 0.926 μM. Human ACC2 was also purified from Baculovirus infected Sf9 expression system. […] The stock concentration was 0.1 mg/ml corresponding to 0.36 μM. The assay buffer for measuring the activity of ACC contained: 30 mM HEPES (pH 7.4), 2 mM MgCl2, 0.01% Brij35, 2 mM DTT, 1% DMSO (solvent for compound). For ACC1 and ACC2 assays, the following concentrations of substrate and cofactors were used: 12 mM NaHCO3, 10 μM acetyl CoA, 10 μM ATP, and 2 mM K-citrate. The recombinant human enzyme was used at 5 nM for ACC1 and 1 nM for ACC2. In brief, enzyme alone in the above buffer without substrate was used for background. All test materials were dissolved in 100% DMSO using acoustic technology (Echo550). The prepared solution was preincubated for 15 min followed by the addition of 5 μL/well of ADP standard. ATP was then added to start the reaction. The assay contents were spun and briefly shaken followed by incubation at room temperature for 1 h. At the end of completion of assay, 5 μL of ADP-Glo was added to each well to stop the reaction. The contents were mixed, spun and incubated at room temperature for 40 min followed by the addition of 10 μL/well of ADP detection reagent. The contents were spun, mixed and covered with plastic to measure luminescence. […] The light generated, measured in a luminometer, correlates to the amount of ADP generated in the ACC assay, which is indicative of ACC activity.
The enzyme concentrations for ACC1 and ACC2 were 5 nM and 1 nM, respectively.
Data represent nM or μM ADP produced, % Activity (relative to no inhibitor controls), and curve fits were performed by GraphPad Prism software. […]
(In general: ADP-Glo first removes unused ATP, then detects ADP through luciferase.)

For experiment [2], the system named is bone marrow derived macrophages (BMDMs). The experiment is described as follows: LPS-induced glycolysis in bone marrow derived macrophages (Seahorse). It counts as cell-based, mouse. The settings on record: LPS + Compound I-1 50 μM, 4 hours. The procedure:
as §1

Turning to `CC(C)(CCCCc1ccc(CCCCC(C)(C)C(=O)O)cc1)C(=O)O` [Compound I-1, 6-[4-(5-carboxy-5-methylhexyl)-phenyl]-2,2-dimethylhexanoic acid], in experiment [1], the “Il-1b mRNA (marker of inflammation)” value was “suppression” and the “Il-6 mRNA (marker of inflammation)” value is “suppression”. For the same molecule, the “Compound IC50 (M) ACC1” value at Human ACC1 is listed as “*”. The “LPS-induced glycolysis (glycolytic rate, Seahorse)” value in experiment [2] is on record as “suppression”.
